Columns and labels:
[1] = tested on: NCI-H358 human non-small cell lung cancer; experiment: NCI-H358 CCK-8 proliferation assay; type: cell-based; settings: NCI-H358 cells, 72 hr
Description: The following cancer cell lines were employed: BT-474 human breast carcinoma (ATCC, #HTB-20); MIA PaCa-2 human pancreatic carcinoma [2 copies KRAS(G12C)](ATCC, #CRL-1420); NCI-H23 human non-small cell lung cancer [1 copy KRAS(G12C)](ATCC, #CRL-5800); NCI-H358 human non-small cell lung cancer [1 copy KRAS(G12C)](ATCC, #CRL-5807); LU65A human lung carcinoma (Pharmaron, Beijing, China). Cell lines were cultured essentially according to ATCC and Pharmaron recommendations.
Cancer Cell Line Proliferation (CCK-8) Assays
3-fold serial dilutions of each test compound were prepared ranging from 20 μM to 1.02 nM.
% Inhibition=100−(D−B)/(S−B)*100%. • S: Absorbance of cells treated with DMSO • D: Absorbance of compound-treated cells • B: Absorbance of medium with DMSO without cells

HSP90a protein = target: T1, HSP90a protein (Homo sapiens, UniProt P07900); experiment: HSP90α-binding fluorescent polarization (FP) assay, BODIPY-labeled RNK04010 probe; settings: FP competition with RNK04010 (BODIPY-labeled), 5 nM, 300 min at 25° C.
T1 construct: purchased BPS Bioscience 50298
Summary of the method: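 Polarization signal was read after equilibration at 25° C, for 120 min with FITC-geldanamycin or 300 min with the BODIPY-tagged RNK04010 probe, each at 5 nM final. Compounds spanned 20 μM down to 5.2 nM in 2.5-fold dilutions against the HSP90a N-terminal domain.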

Structure (SMILES)	EC50 [1]	IC50 (HSP90a protein)
CCC(=O)N1CCN(c2nc(NCCC(=O)N3CCC(Cc4ccc(-n5c(O)nnc5-c5cc(C(C)C)c(O)cc5O)cc4)CC3)nc3c2CCN(c2cc(O)cc4ccccc24)C3)CC1 [Compound 38, 1-(4-(4-(3-(2,4-dihydroxy-5-isopropylphenyl)-5-hydroxy-4H-1,2,4-triazol-4-yl)benzyl)piperidin-1-yl)-3-((7-(3-hydroxynaphthalen-1-yl)-4-(4-propionylpiperazin-1-yl)-5,6,7,8-tetrahydropyrido[3,4-d]pyrimidin-2-yl)amino)propan-1-one, trifluoroacetic acid]	> 1000 nM	100 to 1000 nM
C=CC(=O)N1CCN(c2nc(NCCC(=O)NCc3ccc(-n4c(O)nnc4-c4cc(CC)c(O)cc4O)cc3C(F)(F)F)nc3c2CCN(c2cc(O)cc4ccccc24)C3)CC1 [Compound 39, 3-((4-(4-acryloylpiperazin-1-yl)-7-(3-hydroxynaphthalen-1-yl)-5,6,7,8-tetrahydropyrido[3,4-d]pyrimidin-2-yl)amino)-N-(4-(3-(5-ethyl-2,4-dihydroxyphenyl)-5-hydroxy-4H-1,2,4-triazol-4-yl)-2-(trifluoromethyl)benzyl)propanamide, trifluoroacetic acid]	> 1000 nM	> 1000 nM
C=CC(=O)N1CCN(c2nc(NCCC(=O)NCc3ccc(-n4c(O)nnc4-c4cc(CC)c(O)cc4O)cc3)nc3c2CCN(c2cc(O)cc4ccccc24)C3)CC1 [Compound 40, 3-((4-(4-acryloylpiperazin-1-yl)-7-(3-hydroxynaphthalen-1-yl)-5,6,7,8-tetrahydropyrido[3,4-d]pyrimidin-2-yl)amino)-N-(4-(3-(5-ethyl-2,4-dihydroxyphenyl)-5-hydroxy-4H-1,2,4-triazol-4-yl)benzyl)propanamide, trifluoroacetic acid]	> 1000 nM	100 to 1000 nM
C=CC(=O)N1CCN(c2nc(NCCC(=O)NCc3ccc(-n4c(O)nnc4-c4cc(CC)c(O)cc4O)cc3F)nc3c2CCN(c2cc(O)cc4ccccc24)C3)CC1 [Compound 41, 3-((4-(4-acryloylpiperazin-1-yl)-7-(3-hydroxynaphthalen-1-yl)-5,6,7,8-tetrahydropyrido[3,4-d]pyrimidin-2-yl)amino)-N-(4-(3-(5-ethyl-2,4-dihydroxyphenyl)-5-hydroxy-4H-1,2,4-triazol-4-yl)-2-fluorobenzyl)propanamide, trifluoroacetic acid]	> 1000 nM	100 to 1000 nM
CC(=O)N1CCN(c2nc(NCCC(=O)NCc3ccc(-n4c(O)nnc4-c4cc(C(C)C)c(O)cc4O)cc3C(F)(F)F)nc3c2CCN(c2cc(O)cc4ccccc24)C3)CC1 [Compound 42, 3-((4-(4-acetylpiperazin-1-yl)-7-(3-hydroxynaphthalen-1-yl)-5,6,7,8-tetrahydropyrido[3,4-d]pyrimidin-2-yl)amino)-N-(4-(3-(2,4-dihydroxy-5-isopropylphenyl)-5-hydroxy-4H-1,2,4-triazol-4-yl)-2-(trifluoromethyl)benzyl)propanamide, trifluoroacetic acid]	> 1000 nM	100 to 1000 nM
CCc1cc(-c2nnc(O)n2-c2ccc(CNC(=O)CCNc3nc4c(c(N5CCN(C(C)=O)CC5)n3)CCN(c3cc(O)cc5ccccc35)C4)c(F)c2)c(O)cc1O [Compound 43, 3-((4-(4-acetylpiperazin-1-yl)-7-(3-hydroxynaphthalen-1-yl)-5,6,7,8-tetrahydropyrido[3,4-d]pyrimidin-2-yl)amino)-N-(4-(3-(5-ethyl-2,4-dihydroxyphenyl)-5-hydroxy-4H-1,2,4-triazol-4-yl)-2-fluorobenzyl)propanamide]	> 1000 nM	> 1000 nM
CC(=O)N1CCN(c2nc(NCCC(=O)NCc3ccc(-n4c(O)nnc4-c4cc(C)c(O)cc4O)cc3)nc3c2CCN(c2cc(O)cc4ccccc24)C3)CC1 [Compound 44, 3-((4-(4-acetylpiperazin-1-yl)-7-(3-hydroxynaphthalen-1-yl)-5,6,7,8-tetrahydropyrido[3,4-d]pyrimidin-2-yl)amino)-N-(4-(3-(2,4-dihydroxy-5-methylphenyl)-5-hydroxy-4H-1,2,4-triazol-4-yl)benzyl)propanamide, trifluoroacetic acid]	> 1000 nM	> 1000 nM
CCC(=O)N1CCN(c2nc(NCCC(=O)NCc3ccc(-n4c(O)nnc4-c4cc(CC)c(O)cc4O)cc3C(F)(F)F)nc3c2CCN(c2cc(O)cc4ccccc24)C3)CC1 [Compound 45, N-(4-(3-(5-ethyl-2,4-dihydroxyphenyl)-5-hydroxy-4H-1,2,4-triazol-4-yl)-2-(trifluoromethyl)benzyl)-3-((7-(3-hydroxynaphthalen-1-yl)-4-(4-propionylpiperazin-1-yl)-5,6,7,8-tetrahydropyrido[3,4-d]pyrimidin-2-yl)amino)propanamide, trifluoroacetic acid]	> 1000 nM	> 1000 nM
CCC(=O)N1CCN(c2nc(NCCC(=O)NCc3ccc(-n4c(O)nnc4-c4cc(C(C)C)c(O)cc4O)cc3C(F)(F)F)nc3c2CCN(c2cc(O)cc4ccccc24)C3)CC1 [Compound 46, N-(4-(3-(2,4-dihydroxy-5-isopropylphenyl)-5-hydroxy-4H-1,2,4-triazol-4-yl)-2-(trifluoromethyl)benzyl)-3-((7-(3-hydroxynaphthalen-1-yl)-4-(4-propionylpiperazin-1-yl)-5,6,7,8-tetrahydropyrido[3,4-d]pyrimidin-2-yl)amino)propenamide]	> 1000 nM	100 to 1000 nM
C=CC(=O)N1CCN(c2nc(NCCC(=O)NCc3ccc(-n4c(O)nnc4-c4cc(C(C)C)c(O)cc4O)cc3F)nc3c2CCN(c2cc(O)cc4ccccc24)C3)CC1 [Compound 47, 3-((4-(4-acryloylpiperazin-1-yl)-7-(3-hydroxynaphthalen-1-yl)-5,6,7,8-tetrahydropyrido[3,4-d]pyrimidin-2-yl)amino)-N-(4-(3-(2,4-dihydroxy-5-isopropylphenyl)-5-hydroxy-4H-1,2,4-triazol-4-yl)-2-fluorobenzyl)propenamide]	> 1000 nM	100 to 1000 nM
CCc1cc(-c2nnc(O)n2-c2ccc(CNC(=O)CCNc3nc4c(c(N5CCN(C(C)=O)CC5)n3)CCN(c3cc(O)cc5ccccc35)C4)cc2)c(O)cc1O [Compound 48, 3-((4-(4-acetylpiperazin-1-yl)-7-(3-hydroxynaphthalen-1-yl)-5,6,7,8-tetrahydropyrido[3,4-d]pyrimidin-2-yl)amino)-N-(4-(3-(5-ethyl-2,4-dihydroxyphenyl)-5-hydroxy-4H-1,2,4-triazol-4-yl)benzyl)propanamide, trifluoroacetic acid]	> 1000 nM	100 to 1000 nM
CC(=O)N1CCN(c2nc(NCCC(=O)NCc3ccc(-n4c(O)nnc4-c4cc(C(C)C)c(O)cc4O)cc3F)nc3c2CCN(c2cc(O)cc4ccccc24)C3)CC1 [Compound 49, 3-((4-(4-acetylpiperazin-1-yl)-7-(3-hydroxynaphthalen-1-yl)-5,6,7,8-tetrahydropyrido[3,4-d]pyrimidin-2-yl)amino)-N-(4-(3-(2,4-dihydroxy-5-isopropylphenyl)-5-hydroxy-4H-1,2,4-triazol-4-yl)-2-fluorobenzyl)propanamide, trifluoroacetic acid]	> 1000 nM	100 to 1000 nM
CCC(=O)N1CCN(c2nc(NCCC(=O)NCc3ccc(-n4c(O)nnc4-c4cc(C(C)C)c(O)cc4O)cc3)nc3c2CCN(c2cc(O)cc4ccccc24)C3)CC1 [Compound 50, N-(4-(3-(2,4-dihydroxy-5-isopropylphenyl)-5-hydroxy-4H-1,2,4-triazol-4-yl)benzyl)-3-((7-(3-hydroxynaphthalen-1-yl)-4-(4-propionylpiperazin-1-yl)-5,6,7,8-tetrahydropyrido[3,4-d]pyrimidin-2-yl)amino)propanamide, trifluoroacetic acid]	> 1000 nM	100 to 1000 nM
CCC(=O)N1CCN(c2nc(NCCC(=O)NCCOc3ccc(-n4c(O)nnc4-c4cc(C(C)C)c(O)cc4O)cc3)nc3c2CCN(c2cc(O)cc4ccccc24)C3)CC1 [Compound 51, N-(2-(4-(3-(2,4-dihydroxy-5-isopropylphenyl)-5-hydroxy-4H-1,2,4-triazol-4-yl)phenoxy)ethyl)-3-((7-(3-hydroxynaphthalen-1-yl)-4-(4-propionylpiperazin-1-yl)-5,6,7,8-tetrahydropyrido[3,4-d]pyrimidin-2-yl)amino)propanamide, trifluoroacetic acid]	> 1000 nM	100 to 1000 nM
CCCc1cc(-c2nnc(O)n2-c2ccc(CN3CCN(CC4CCN(C(=O)CCNc5nc6c(c(N7CCN(C(=O)CC)CC7)n5)CCN(c5cc(O)cc7ccccc57)C6)CC4)CC3)cc2)c(O)cc1O [Compound 52, 1-(4-((4-(4-(3-(2,4-dihydroxy-5-propylphenyl)-5-hydroxy-4H-1,2,4-triazol-4-yl)benzyl)piperazin-1-yl)methyl)piperidin-1-yl)-3-((7-(3-hydroxynaphthalen-1-yl)-4-(4-propionylpiperazin-1-yl)-5,6,7,8-tetrahydropyrido[3,4-d]pyrimidin-2-yl)amino)propan-1-one]	> 1000 nM	100 to 1000 nM
